As usually defined, the EC50 is the concentration needed to bring the measured effect to its halfway point.

Like-named read-outs stand apart in the source and are kept apart here.

For this experiment, the system named is human FXN. As to the kind of experiment: FXN mRNA expression by qRT-PCR in GM15850 cells after 48 hr compound treatment. The class given is cell-based. As to conditions: read-out: EC50 WT (nM, 48 hr). A general note: Quantitative PCR measures a nucleic acid by following its amplification.
Where [1] appears, read: Homo sapiens, GM15850 cells, 48 hr incubation, hFXN normalized to hGAPDH.

For the compound `CC(=O)N1c2ccc(-c3ccc(C(=O)NCCOCCOCCOCCOCCOCCOCCOCCOCCNC(=O)c4nc(NC(=O)CCNC(=O)c5cc(NC(=O)c6nc(NC(=O)CCNC(=O)c7cc(NC(=O)c8nc(NC(=O)CCNC(=O)COCCOCCOCCOCCOCCOCCOCCOCCOCCOCCOCCOCCOCCOCCOCCN)cn8C)cn7C)cn6C)cn5C)cn4C)cc3)cc2[C@H](Nc2ccc(Cl)cc2)C[C@@H]1C` [Compound 89], the EC50 under setting [1] is over 500 nM.

`CC(=O)N1c2ccc(-c3ccc(C(=O)NCCOCCOCCOCCOCCOCCOCCOCCOCCNC(=O)c4nc(NC(=O)CCNC(=O)c5cc(NC(=O)c6nc(NC(=O)CCNC(=O)c7cc(NC(=O)c8nc(NC(=O)CCNC(=O)[C@H](CCCNC(=N)N)NC(=O)[C@@H](N)CCCNC(=N)N)cn8C)cn7C)cn6C)cn5C)cn4C)cc3)cc2[C@H](Nc2ccc(Cl)cc2)C[C@@H]1C` [Compound 90]: the EC50 (GM15850 cells, 48 hr incubation, hFXN normalized to hGAPDH) fell in the range of 100 to 500 nM. `Cc1sc2c(c1C)C(c1ccc(Cl)cc1)=N[C@@H](CC(=O)Nc1ccc(OCCOCCOCCNC(=O)[C@H](CCCNC(=N)N)NC(=O)[C@H](CCCNC(=N)N)NC(=O)CCOCCOCCOCCNC(=O)CCNC(=O)c3nc(NC(=O)CCNC(=O)c4cc(NC(=O)c5nc(NC(=O)CCNC(=O)c6cc(NC(=O)c7nccn7C)cn6C)cn5C)cn4C)cn3C)cc1)c1nnc(C)n1-2` [Compound 99]: the EC50 (Homo sapiens, GM15850, 48 h) is under 100 nM. On to `COc1ccc2c(c1)C(c1ccc(Cl)cc1)=N[C@@H](CC(=O)Nc1ccc(OCCOCCOCCNC(=O)[C@H](CCCNC(=N)N)NC(=O)[C@H](CCCNC(=N)N)NC(=O)CCOCCOCCOCCNC(=O)CCNC(=O)c3nc(NC(=O)CCNC(=O)c4cc(NC(=O)c5nc(NC(=O)CCNC(=O)c6cc(NC(=O)c7nccn7C)cn6C)cn5C)cn4C)cn3C)cc1)c1nnc(C)n1-2` [Compound 100], for which, under setting [1], the EC50 was 100 to 500 nM.

`Cc1sc2c(c1C)C(c1ccc(Cl)cc1)=N[C@@H](CC(=O)NC1CCN(CCOCCOCCOCCOCCOCCC(=O)NCCCN(CCCNC(=O)CCNC(=O)c3nc(NC(=O)CCNC(=O)c4cc(NC(=O)c5nc(NC(=O)CCNC(=O)c6cc(NC(=O)c7nccn7C)cn6C)cn5C)cn4C)cn3C)CC(F)(F)F)CC1)c1nnc(C)n1-2` [Compound 101]: the EC50 under setting [1] was 100 to 500 nM. Still for that read-out and setting: the result for `Cc1sc2c(c1C)C(c1ccc(Cl)cc1)=N[C@@H](CC(=O)Nc1ccc(OCCOCCOCCOCCOCCOCCOCCOCCOCCNC(=O)CCNC(=O)c3nc(NC(=O)CCNC(=O)c4cc(NC(=O)c5nc(NC(=O)CCNC(=O)c6cc(NC(=O)c7nccn7C)cn6C)cn5C)cn4C)cn3C)nc1)c1nnc(C)n1-2` [Compound 102] reads under 100 nM; that for `Cc1sc2c(c1C)C(c1ccc(Cl)cc1)=N[C@@H](CC(=O)Nc1cncc(OCCOCCOCCOCCOCCOCCOCCOCCOCCNC(=O)CCNC(=O)c3nc(NC(=O)CCNC(=O)c4cc(NC(=O)c5nc(NC(=O)CCNC(=O)c6cc(NC(=O)c7nccn7C)cn6C)cn5C)cn4C)cn3C)c1)c1nnc(C)n1-2` [Compound 103], under 100 nM.
